Assay results published in patent US4060527A, “Pyrido[2,3-c]-acridine-1-hydroxy-2-carboxylic acid derivatives” (Fuji Chemical Industries, Ltd., priority 1975, dated 1977).
≈ marks a conversion by molar mass, not a printed value. Like-named read-outs stand apart in the source and are kept apart here.

Assays:
Staphylococcus aureus [1] = test: Antibacterial activity (MIC) against Staphylococcus aureus as Gram-positive bacterium; format: cell-based; conditions: Table 3, class symbols; for MIC: Staphylococcus aureus, read-out: Antibacterial Activity (MIC) Staph. aureus
Experimental: (§1) Some of the compounds of this invention were tested as to their antibacterial activity (MIC, mcg/ml) against Staph. aureus as Gram-positive bacterium and E. coli as Gram-negative bacterium. In the table, the antibacterial activity of 0.09 to 1.25 mcg/ml. is indicated as A1, and the antibacterial activity of more than 1.25 mcg/ml. and not more than 2.5 mcg/ml. is indicated as A2.

Escherichia coli [2] = test: Antibacterial activity (MIC) against Escherichia coli as Gram-negative bacterium; format: cell-based; conditions: Table 3, class symbols; for MIC: Escherichia coli, read-out: Antibacterial Activity (MIC) E. coli
Experimental: as §1

in vivo = conditions: mouse
Escherichia coli [3] = test: Antibacterial activity (MIC) against Escherichia coli as Gram-negative bacterium; format: cell-based; conditions: for MBC: Table 1, bacteriocidal, read-out: Escherichia coli bacteriocidal action; for MIC: Table 1, bacteriostatic, read-out: Escherichia coli bacteriostatic action (MIC)
Staphylococcus aureus [4] = test: Antibacterial activity (MIC) against Staphylococcus aureus as Gram-positive bacterium; format: cell-based; conditions: for MBC: Table 1, bacteriocidal, read-out: Staphylococcus aureus bacteriocidal action; for MIC: Table 1, bacteriostatic, read-out: Staphylococcus aureus bacteriostatic action (MIC)
[5] = Acute toxicity LD50 on mouse; conditions: in vivo, sc

SMILES | MIC (Staphylococcus aureus [1]) | MIC (Escherichia coli [2]) | also measured
CC(=O)OCCNc1c2ccccc2nc2c1ccc1ncc(C(=O)O)c(O)c12 [Compound F-926, Pyrido[2,3-c]-acridine-1-hydrox-7-acetoxyethylamino-2-carboxylic acid] | – | – | Antibacterial Activity (MIC) Staph. aureus (Staphylococcus aureus [1]): A1 (antibacterial activity of 0.09 to 1.25 mcg/ml.); Antibacterial Activity (MIC) E. coli (Escherichia coli [2]): A1 (antibacterial activity of 0.09 to 1.25 mcg/ml.)
O=C(O)c1ccc2nc3c(ccc4ncc(C(=O)O)c(O)c43)cc2c1 [Compound F-935, Pyrido[2,3-c]-1-hydroxy-2,9-dicarboxylic acid] | 1.25 to 2.5 µg/mL (≈ 3.74 to 7.48 µM) | 1.25 to 2.5 µg/mL (≈ 3.74 to 7.48 µM) | –
O=C(O)c1cnc2c(Br)cc3cc4ccccc4nc3c2c1O [Compound F-840, Pyrido[2,3-c]-acridine-1-hydroxy-5-bromo-2-carboxylic acid] | – | 0.09 to 1.25 µg/mL (≈ 0.244 to 3.39 µM) | –
C=Cc1c2ccccc2nc2c1ccc1ncc(C(=O)O)c(O)c12 [Compound F-690, Pyrido[2,3-c]-acridine-1-hydroxy-7-vinyl-2-carboxylic acid] | 1.25 to 2.5 µg/mL (≈ 3.95 to 7.9 µM) | 1.25 to 2.5 µg/mL (≈ 3.95 to 7.9 µM) | –
O=C(O)c1cnc2ccc3cc4ccc(N(CO)CO)cc4nc3c2c1O [Compound F-916, Pyrido[2,3-c]-acridine-1-hydroxy-10-di-(hydroxymethyl)amino-2-carboxylic acid] | 0.09 to 1.25 µg/mL (≈ 0.246 to 3.42 µM) | 0.09 to 1.25 µg/mL (≈ 0.246 to 3.42 µM) | –
CSc1c2ccccc2nc2c1ccc1ncc(C(=O)O)c(O)c12 [Compound F-877, Pyrido[2,3-c]-acridine-1-hydroxy-7-methylmercapto-2-carboxylic acid] | 0.09 to 1.25 µg/mL (≈ 0.268 to 3.72 µM) | 0.09 to 1.25 µg/mL (≈ 0.268 to 3.72 µM) | –
CC(=O)OCCNc1ccc2nc3c(ccc4ncc(C(=O)O)c(O)c43)cc2c1 [Compound F-927, Pyrido[2,3-c]-acridine-1-hydroxy-9-acetoxyethylamino-2-carboxylic acid] | – | – | Antibacterial Activity (MIC) Staph. aureus (Staphylococcus aureus [1]): A1 (antibacterial activity of 0.09 to 1.25 mcg/ml.); Antibacterial Activity (MIC) E. coli (Escherichia coli [2]): A1 (antibacterial activity of 0.09 to 1.25 mcg/ml.)
NCc1cc2cc3ccccc3nc2c2c(O)c(C(=O)O)cnc12 [Compound F-901, Pyrido[2,3-c]-acridine-1-hydroxy-5-aminomethyl-2-carboxylic acid] | 1.25 to 2.5 µg/mL (≈ 3.91 to 7.83 µM) | 1.25 to 2.5 µg/mL (≈ 3.91 to 7.83 µM) | –
CCCCc1c2ccccc2nc2c1ccc1ncc(C(=O)O)c(O)c12 [Compound F-634] | 0.09 to 1.25 µg/mL (≈ 0.26 to 3.61 µM) | 0.09 to 1.25 µg/mL (≈ 0.26 to 3.61 µM) | LD50 (in vivo; iv): 215 mg/kg; LD50 (in vivo; po): > 5000 mg/kg; MBC (Escherichia coli [3]): 0.62 µg/mL (≈ 1.79 µM); MIC (Escherichia coli [3]): 0.62 µg/mL (≈ 1.79 µM); MBC (Staphylococcus aureus [4]): 0.25 µg/mL (≈ 0.722 µM); MIC (Staphylococcus aureus [4]): 0.25 µg/mL (≈ 0.722 µM); LD50 [5]: > 3000 mg/kg
C=CCc1c2ccccc2nc2c1ccc1ncc(C(=O)O)c(O)c12 [Compound F-694, Pyrido[2,3-c]-acridine-1-hydroxy-7-allyl-2-carboxylic acid] | 1.25 to 2.5 µg/mL (≈ 3.78 to 7.57 µM) | 0.09 to 1.25 µg/mL (≈ 0.272 to 3.78 µM) | –
CC(=O)OCCNc1cc2cc3ccccc3nc2c2c(O)c(C(=O)O)cnc12 [Compound F-925, Pyrido[2,3-c] -acridine-1-hydroxy-5-acetoxyethylamino-2-carboxylic acid] | – | – | Antibacterial Activity (MIC) Staph. aureus (Staphylococcus aureus [1]): A1 (antibacterial activity of 0.09 to 1.25 mcg/ml.); Antibacterial Activity (MIC) E. coli (Escherichia coli [2]): A1 (antibacterial activity of 0.09 to 1.25 mcg/ml.)
O=C(O)c1cnc2ccc3c(N(CO)CO)c4ccccc4nc3c2c1O [Compound F-914, Pyrido[2,3-c]-acridine-1-hydroxy-7-di-(hydroxymethyl)amino-2-carboxylic acid] | 0.09 to 1.25 µg/mL (≈ 0.246 to 3.42 µM) | 0.09 to 1.25 µg/mL (≈ 0.246 to 3.42 µM) | –
CNc1c2ccccc2nc2c1ccc1ncc(C(=O)O)c(O)c12 [Compound F-853, Pyrido[2,3-c]-acridine-1-hydroxy-7-methylamino-2-carboxylic acid] | 0.09 to 1.25 µg/mL (≈ 0.282 to 3.91 µM) | 0.09 to 1.25 µg/mL (≈ 0.282 to 3.91 µM) | –
O=C(O)c1cnc2ccc3c(-c4ccccc4)c4ccccc4nc3c2c1O [Compound F-633] | 0.09 to 1.25 µg/mL (≈ 0.246 to 3.41 µM) | 0.09 to 1.25 µg/mL (≈ 0.246 to 3.41 µM) | LD50 (in vivo; iv): 245 mg/kg; LD50 (in vivo; po): > 5000 mg/kg; MBC (Escherichia coli [3]): 1.25 µg/mL (≈ 3.41 µM); MIC (Escherichia coli [3]): 1.25 µg/mL (≈ 3.41 µM); MBC (Staphylococcus aureus [4]): 1.25 µg/mL (≈ 3.41 µM); MIC (Staphylococcus aureus [4]): 1.25 µg/mL (≈ 3.41 µM); LD50 [5]: > 3000 mg/kg
O=C(O)c1cnc2ccc3cc4cc(CO)ccc4nc3c2c1O [Compound F-895, Pyrido[2,3-c]-acridine-1-hydroxy-9-hydroxymethyl-2-carboxylic acid] | 1.25 to 2.5 µg/mL (≈ 3.9 to 7.81 µM) | 0.09 to 1.25 µg/mL (≈ 0.281 to 3.9 µM) | –
O=C(O)c1cnc2ccc3c(I)c4ccccc4nc3c2c1O [Compound F-845, Pyrido[2,3-c]-acridine-1-hydroxy-7-iodo-2-carboxylic acid] | 0.09 to 1.25 µg/mL (≈ 0.216 to 3 µM) | 0.09 to 1.25 µg/mL (≈ 0.216 to 3 µM) | –
CCNc1cc2cc3ccccc3nc2c2c(O)c(C(=O)O)cnc12 [Compound F-856, Pyrido[2,3-c]-acridine-1-hydroxy-5-ethylamino-2-carboxylic acid] | 0.09 to 1.25 µg/mL (≈ 0.27 to 3.75 µM) | 0.09 to 1.25 µg/mL (≈ 0.27 to 3.75 µM) | –
O=C(O)c1cnc2ccc3cc4cccc(O)c4nc3c2c1O [Compound F-932, Pyrido[2,3-c]-1,11-dihydroxy-2-carboxylic acid] | 0.09 to 1.25 µg/mL (≈ 0.294 to 4.08 µM) | 0.09 to 1.25 µg/mL (≈ 0.294 to 4.08 µM) | –
